According to article PMC5032167, “A conjugate of methotrexate and an analog of luteinizing hormone releasing hormone shows increased efficacy against prostate cancer” (Scientific Reports, 2016):
Marks after values point to notes of the source that are not given here.

Tests used:
[1] = tested on: PC-3 tumor xenografts; test: In vivo anti-tumor activity, PC-3 tumor xenografts; set-up: species or system athymic BALB/c nude mice; conditions: for effect on tumor volume / Mean tumor weight / Mean tumor volume, Final: end of study; for Inhibition ratio of tumor weight / Inhibition ratio of tumor volume: against saline; for Inhibition ratio of tumor weight / Inhibition ratio of tumor volume / Mean tumor volume, Initial / Mean tumor weight / Mean tumor volume, Final / Tumor volume doubling time: n = 10; for Inhibition ratio of tumor volume / Tumor volume doubling time: i.v. twice weekly for 4 weeks; for Mean tumor volume, Initial: baseline, nude mice with PC-3 xenografts; for Mean tumor volume, Initial / Mean tumor weight / Mean tumor volume, Final: means ± SD; for Mean tumor volume, Final: i.v. tail vein twice weekly for 4 weeks; for Tumor volume doubling time: saline control 6.13 days
Method: Four week-old male athymic BALB/c nude mice were obtained from Sino-British SIPPR/BK Laboratory Animal Ltd (Shanghai, China). The animals were housed in sterile cages under laminar flow hoods in a temperature-controlled room with a 12h light/12h dark schedule and were fed autoclaved chow and water ad libitum.
PC-3 cells were harvested from subconfluent cultures after a brief exposure to 0.25% trypsin and 0.2% EDTA. Trypsinization was stopped by adding medium containing 10% FBS. The cells were washed once in serum-free medium and resuspended in PBS. Only suspensions consisting of single cells with >90% viability were used for the injections. PC-3 cells (1 × 10^7) in 100 μL PBS suspended in Matrigel (0.1 mg, Collaborative Biomedical Products Becton Dickinson Labware, Bedford, MA) were injected subcutaneously into the interscapular area using a 27-gauge needle.
On day 21, after PC-3 cell implantation, mice bearing tumors […] were randomized into the following four treatment groups (n = 10): saline controls, MTX treatment, [Dlys^6]-LHRH-MTX treatment and MTX plus [Dlys^6]-LHRH treatment. Treatments were made in 100 μL PBS and were given intravenously by tail vein injection twice weekly for 4 weeks. The vehicle-treated group received an equivalent amount of PBS. Tumor volumes were measured with calipers and the body weights of the mice were measured twice a week. Tumor volumes were calculated with the following formula: V(mm^3) = length × width^2/2, where width represents the shortest measurement in millimeters. The animals were euthanized 7 days after the last treatment. Body weights, tumor weights and organ weights were recorded.

[2] = tested on: prostate cancer cell lines (PC-3, DU145 and LNCaP); test: MTT cytotoxicity assay, prostate cancer cell lines as a group; format: cell-based, human; conditions: 24 h
Method: (§1) The LNCaP cells were grown in RPMI 1640 medium(Gibco Invitrogen, CA) containing 10% FBS and 1% penicillin/streptomycin and the DU145 cells were grown in Eagle’s minimum essential medium (MEM) (Gibco Invitrogen, CA) with 2 mM L-glutamine and Earle’s BSS, 1.5 g/L sodium bicarbonate, 0.1mM non-essential amino acids, 1 mM sodium pyruvate, 10% FBS and 1% penicillin/streptomycin.
(§2) The cytotoxic effect of MTX, [Dlys^6]-LHRH, and [Dlys^6]-LHRH-MTX was evaluated using the methylthiazol tetrazolium (MTT) assay (Sigma Aldrich, MO), which determines the number of viable cells from the formazan crystals produced by metabolic activity.
(§3) In the equation, T represents the absorption value of the treatment group; C is the absorption value of the control (untreated) group; and B refers to the absorption value of the culture medium. IC50 values (μg/mL) were calculated with SPSS software. In a competition assay, Prostate cancer cells (5,000 per well) were separately incubated in 96-well plates in triplicate with [DLys^6]-LHRH–MTX alone and [DLys^6]-LHRH free peptide and [DLys^6]-LHRH–MTX together, and the cells were incubated for 24 hr. The plates were then analyzed with the MTT method.

[3] = tested on: normal human prostate fibroblast (HPrF) cells
Method: (§4) To determine the selectivity of LHRH-MTX, we performed a MTT experiment with normal human prostate fibroblast (HPrF) cells.
(§5) HPrF cells were exposed to MTX or [DLys^6]-LHRH-MTX at 0.015-1000 μmol/L. Growth inhibition was determined by MTT assay.
(§6) PC-3 cells and HPrF cells were maintained in T-media (Gibco Invitrogen, CA) supplemented with 10% fetal bovine serum (FBS) (Gibco Invitrogen, CA) and 1% penicillin/streptomycin (Cellgro Mediatech, nc., VA). […]
(§7) The cytotoxic effect of MTX, [Dlys^6]-LHRH, and [Dlys^6]-LHRH-MTX was evaluated using the methylthiazol tetrazolium (MTT) assay (Sigma Aldrich, MO), which determines the number of viable cells from the formazan crystals produced by metabolic activity[26][33][34]. […] The absorption at 570 nm was recorded with an ELISA plate reader (Bio-Rad, Microplate Reader 550 and the growth inhibitory (GI) rate was calculated according to the following equation: GI(%) = 100 − [T − B)/(C − B) × 100].

[4] = tested on: LNCaP cells; test: MTT cytotoxicity assay, LNCaP cells; format: cell-based; conditions: Homo sapiens, 24 h treatment, means ± SD, n = 3
Method: as §1, §2, §3

[5] = tested on: PC-3 cells; test: MTT cytotoxicity assay, PC-3 cells; format: cell-based; conditions: Homo sapiens, 24 h treatment, means ± SD, n = 3
[6] = tested on: PC-3 cells; test: Apoptosis analysis, Annexin V-FITC/PI staining, flow cytometry; format: cell-based, human; conditions: 24 h; for late apoptotic/early necrotic (AV+/PI+) cells: quadrant B2; for early apoptotic (AV+/PI−) populations: quadrant B4
Method: To quantitatively investigate apoptotic and early necrotic events in these treated cultures, the fluorescent probe Annexin V-FITC and PI were used, The presence of a apoptotic and early necrotic cells was then determined and quantified by flow cytometry analysis which clearly differentiated normal cells with low Annexin V-FITC and low PI staining, apoptotic cells with high Annexin V-FITC and low PI staining, necrotic cells with high Annexin V-FITC and high PI staining and cell debris with low Annexin VFITC and high PI staining.
Figure 4 Quantitative apoptotic measurement in PC-3 cells after treatment with [DLys^6]-LHRH-MTX and MTX, the concentration-dependent effects on apoptosis following treatment with MTX and [DLys^6]-LHRH-MTX for 24 at doses of 0.98 μmol/L and 3.91 μmol/L were determined by flow cytometry analysis. Results were expressed as a dot plot of Annexin V -FITC vs. PI. […]
To quantitatively evaluate the induction of apoptosis by flow cytometry, Annexin-V-FITC/PI staining was performed. Briefly, PC-3 cells were seeded in a 6-well culture plate at a density of 2 × 10^5 cells per well, and treated with various concentrations of MTX or [Dlys^6]-LHRH or [Dlys^6]-LHRH-MTX for 24 h. The cells were harvested and then stained with Annexin V-FITC/PI solution (1:1, v/v, […]) in the dark for 15 min at room temperature. After washing with PBS, the cell suspensions in buffer were gently vortexed, and analyzed within 1 h by flow cytometry (Beckton Dickinson, CA, […]).

[7] = tested on: normal human prostate fibroblast (HPrF) cells; test: cells
Method: as §4, §5, §6, §7

[8] = tested on: DU145 cells; test: MTT cytotoxicity assay, DU145 cells; format: cell-based; conditions: Homo sapiens, DU-145, 24 h treatment, means ± SD, n = 3
Method: as §1, §2, §3

Compound | histology of tumor sections, hematoxylin/eosin ([1]; PC-3 xenografts, Fig. 7) | effect on tumor volume ([1]; PC-3 xenografts) | Inhibition ratio of tumor weight [1] [%] | Inhibition ratio of tumor volume [1] [%] | Mean tumor volume, Initial [1] [mm3] | tumor burden ([1]; day 30, n = 10, Fig. 6) | Mean tumor weight [1] | Mean tumor volume, Final [1] | Tumor volume doubling time [1] [days] | cytotoxicity against prostate cancer cell lines [2] | cytotoxicity against HPrF cells [3] | IC50 [4] [µM] | IC50 [5] [µM] | late apoptotic/early necrotic (AV+/PI+) cells ([6]; PC-3, 0.98 μmol/L) [%] | early apoptotic (AV+/PI−) populations ([6]; PC-3, 0.98 μmol/L) [%] | late apoptotic/early necrotic (AV+/PI+) cells ([6]; PC-3, 3.91 μmol/L) [%] | early apoptotic (AV+/PI−) populations ([6]; PC-3, 3.91 μmol/L) [%] | IC50 [7] [µM] | IC50 [8] [µM]
[DLys^6]-LHRH | predominantly viable cells | did not affect the tumor volume | 4.41 | 2.88 | 62.49 ± 13.70 | unchanged | 1.95 ± 0.34 g | 1784.58 ± 95.99 mm3 | 6.13 | no cytotoxicity | no cytotoxicity |  |  |  |  |  |  |  | 
CN(Cc1cnc2nc(N)nc(N)c2n1)c1ccc(C(=O)N[C@@H](CCC(=O)O)C(=O)O)cc1 [MTX, Methotrexate] |  | significant anti-tumor effects | 59.90 | 61.88 | 63.38 ± 7.38 |  | 0.82 ± 0.12 ^a g | 700.39 ± 36.48 ^a mm3 | 8.88 |  |  | 9.68 ± 1.24 | 6.34 ± 1.01 | 8.35 | 15.38 | 9.52 | 30.88 | 42.3 ± 7.25 | 8.03 ± 1.29
